According to patent US20030181727A1, “Cyanine dyes” (Kabushiki Kaisha Hayashibara Seibutsu Kagaku Kenky, priority 1999, published 2003):

Tests used:
[1] = Light-resistance test: residual percentage of dye in thin layer on glass after 25 min exposure to 500 W xenon lamp; assay type: physicochemical; details: 7 cm, from transmittance at absorption maximum; for Residual percentage of monomethine cyanine dye, With no light-resistant improver: control thin layer without improver; for Residual percentage of monomethine cyanine dye, With light-resistant improver: thin layer with formazan nickel complex of Chemical Formula 49 (15 mg dye + 2 mg improver in 3 ml TFP)
Method: Fifteen milligrams of either of the monomethine cyanine dyes in Table 2 was added to three milliliters of TFP, and as a light-resistant improver two milligrams of the formazan nickel complex represented by Chemical Formula 49 disclosed in Japanese Patent Application No. 163,036/99, titled “Formazan metal complexes” applied for by the same applicant as the present invention, and the contents were dissolved in the solvent with a 5-minute ultrasonic energization at ambient temperature. Thereafter, in a usual manner, a prescribed volume of the resulting solution was dropped on either surface of a polished glass substrate, 5 cm×5 cm, while the glass substrate was rotated at a rotation rate of 1,000 rpm for one minute to uniformly coat the solution thereupon, and sequentially blown with hot air and cold air to dry the coated solution. [drawing 10]
The resulting glass substrates coated with the monomethine cyanine dyes were measured for transmittance (T0) at the wavelengths of their absorption maxima, and then fixed to a position 7 cm apart from a 500 W xenon lamp and exposed with the light for 25 min while cold air was blowing to the substrates. Immediately after that, the resulting substrates were remeasured for transmittance (T) at the wavelengths of the absorption maxima of the monomethine cyanine dyes, and the transmittances of T and T0 for each monomethine cyanine dye were substituted for the Equation 1 to calculate the residual percentage (%) of each monomethine cyanine dye. In parallel, control systems with no light-resistant improver for each monomethine cyanine dye were provided and treated similarly as above. [formula]
As shown in the results in Table 2, in the systems with no light-resistant improver, up to 74% of the monomethine cyanine dye had changed with only a 25-min exposure of light to become incapable of exerting its inherent optical properties. However, in the systems with the formazan metal complex represented by Chemical Formula 49, all of the monomethine cyanine dyes still remained intact up to a level of over 93% without changing even after the exposure of light.

[2] = Visible absorption spectra of monomethine cyanine dyes in methanol solution and as thin layer on glass substrates; assay type: physicochemical; details: for Wavelength of absorption maximum, Solution: dissolved in methanol; for Wavelength of absorption maximum, Thin layer: thin layer formed on glass substrate
Method: The monomethine cyanine dyes in Table 1 were measured for their visible absorption spectra when dissolved in methanol and formed on glass substrates, respectively. The results are tabulated in Table 1, and the visible absorption spectrum of the monomethine cyanine dye represented by Chemical Formula 17 when in a liquid form and in a thin-layer form are shown in FIG. 1.
As evident from the results in Table 1 and FIG. 1, the monomethine cyanine dyes tested had absorption maxima in relatively short wavelength visible regions, particularly, at wavelengths of 450 nm or less both in the forms of solution and thin layer. Most of these monomethine cyanine dyes had absorption maxima at wavelengths of 350-400 nm when in solution and thin layer forms, and the ends of their absorption maxima in their longer wavelength regions extended up to about 450 nm when in a thin layer form. The fact evidences that the light absorbents, comprising the monomethine cyanine dyes of the present invention, have sensitivity to a relatively short-wavelength visible light, and most of the light absorbents substantially absorb laser beams with wavelengths of 450 nm or less in their longer wavelength regions with their absorption maxima.

Compound	Residual percentage of monomethine cyanine dye, With no light-resistant improver [1]	Residual percentage of monomethine cyanine dye, With light-resistant improver [1]	Wavelength of absorption maximum, Solution [2]	Wavelength of absorption maximum, Thin layer [2]
CN1C(=CC2=[N+](C)c3ccccc3C2(C)C)Oc2ccccc21.[I-] [Chemical Formula 36]	26.0%	93.2%	396 nm	440 nm
CC[n+]1c(C)csc1C=C1OC=C(C)N1C.[I-] [Chemical Formula 17]	80.6%	100.0%	379 nm	375 nm
CC[n+]1c(C=C2Oc3ccc(-c4ccccc4)cc3N2C)oc2ccccc21.[I-] [Chemical Formula 6]	98.7%	100.0%	380 nm	371 nm
